Measurements taken from patent US10626081B2, “Farnesoid X receptor agonists and uses thereof” (Metacrine, Inc., priority 2015, dated 2020).

Target: T1, FXR (Homo sapiens, UniProt Q96RI1)
T1 construct: expressed in transfected cells; host or cells: CV-1 cells
T1 sequence (Q96RI1 1-486): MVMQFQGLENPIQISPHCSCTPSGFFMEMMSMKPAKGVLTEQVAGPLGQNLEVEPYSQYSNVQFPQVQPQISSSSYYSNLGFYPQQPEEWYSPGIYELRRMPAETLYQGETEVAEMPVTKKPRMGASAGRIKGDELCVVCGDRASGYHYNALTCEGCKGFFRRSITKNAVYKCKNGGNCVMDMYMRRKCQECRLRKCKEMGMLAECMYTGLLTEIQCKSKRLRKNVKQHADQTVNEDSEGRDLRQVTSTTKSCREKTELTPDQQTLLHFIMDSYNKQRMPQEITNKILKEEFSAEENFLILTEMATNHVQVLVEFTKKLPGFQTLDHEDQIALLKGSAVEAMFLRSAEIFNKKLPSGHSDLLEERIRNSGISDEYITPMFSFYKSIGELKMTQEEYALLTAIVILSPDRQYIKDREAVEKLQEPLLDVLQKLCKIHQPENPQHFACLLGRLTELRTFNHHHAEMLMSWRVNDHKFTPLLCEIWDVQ
T1 sequence (P19793 1-462 partner): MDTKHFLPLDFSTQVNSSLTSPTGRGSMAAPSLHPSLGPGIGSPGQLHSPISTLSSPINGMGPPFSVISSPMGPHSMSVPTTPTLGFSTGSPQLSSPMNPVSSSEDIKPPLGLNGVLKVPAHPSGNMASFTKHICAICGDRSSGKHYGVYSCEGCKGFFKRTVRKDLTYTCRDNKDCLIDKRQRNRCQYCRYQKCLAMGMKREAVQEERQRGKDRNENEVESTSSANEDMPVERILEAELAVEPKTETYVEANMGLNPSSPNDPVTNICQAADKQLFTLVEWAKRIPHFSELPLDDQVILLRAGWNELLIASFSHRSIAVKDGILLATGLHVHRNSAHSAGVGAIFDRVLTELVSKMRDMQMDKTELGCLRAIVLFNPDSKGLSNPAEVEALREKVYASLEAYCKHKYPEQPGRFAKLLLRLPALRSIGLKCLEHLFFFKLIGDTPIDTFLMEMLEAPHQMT
Assay: In Vitro FXR Assay (TK): TK-ECRE-luc reporter in transfected CV-1 cells
Format: cell-based
Conditions: CV-1 cells transfected with hFXR, hRXR, 18 h incubation, luminescence
Experimental: Example B-2: In Vitro FXR Assay (TK)
CV-1 cells were seeded at a density of 2,000,000 cells in a T175 flask with DMEM+10% charcoal double-stripped FBS and incubated at 37° C. in 5% CO2 for 18 h (O/N).
After 18 h of incubation, the medium in the T175 flask was changed with fresh DMEM+10% charcoal super-stripped serum. In a polypropylene tube, 2500 μL OptiMEM (Life Technologies, Cat #31985-062) was combined with expression plasmids for hFXR, hRXR, TK-ECRE-luc and pCMX-YFP. The tube was then briefly vortexed and incubated at room temperature for 5 minutes. Transfection reagent (X-tremeGENE HP from Roche, Cat #06 366 236 001) was added to the OptiMEM/plasmid mixture vortexed and incubated at room temperature for 20 minutes. Following incubation, the transfection reagent/DNA mixture complex was added to cells in the T175 flask and the cells were incubated at 37° C. in 5% CO2 for 18 h (O/N).
Compounds were serially diluted in DMSO and added to transfected CV-1 cells. The cells were then incubated for 18 hrs. The next day cells were lysed and examined for luminescence.

COC(=O)/C=C/c1cccc(N(Cc2ccc(-c3ccc(N4CCC4)cc3)cc2)C(=O)C2CCCCC2)c1 [75.2, (E)-Methyl 3-(3-(N-((4′-(azetidin-1-yl)-[1,1′-biphenyl]-4-yl)methyl)cyclohexanecarboxamido)phenyl) acrylate]
EC50: 1 to 10 µM

COC(=O)/C=C/c1cccc(N(Cc2ccc(-c3cnc(N(C)C)nc3)cc2)C(=O)C2CCCCC2)c1 [75.3, (E)-Methyl 3-(3-(N-(4-(2-(dimethylamino)pyrimidin-5-yl)benzyl)cyclohexanecarboxamido)phenyl) acrylate]
EC50: ≤ 1 µM

COC(=O)/C=C/c1cccc(N(Cc2ccc(-c3cnc(N(C)C)cn3)cc2)C(=O)C2CCCCC2)c1 [75.4, (E)-Methyl 3-(3-(N-(4-(5-(dimethylamino)pyrazin-2-yl)benzyl)cyclohexanecarboxamido)phenyl) acrylate]
EC50: 1 to 10 µM

COC(=O)/C=C/c1cccc(N(Cc2ccc(-c3ccc(N(C)C)nn3)cc2)C(=O)C2CCCCC2)c1 [75.5, (E)-Methyl 3-(3-(N-(4-(6-(dimethylamino)pyridazin-3-yl)benzyl)cyclohexanecarboxamido)phenyl) acrylate]
EC50: 1 to 10 µM

COC(=O)/C=C/c1cccc(N(Cc2ccc(-c3ccc(N(C)S(C)(=O)=O)cc3)cc2)C(=O)C2CCCCC2)c1 [75.6, (E)-Methyl 3-(3-(N-((4′-(N-methylmethylsulfonamido)-[1,1′-biphenyl]-4-yl)methyl)cyclohexanecarboxamido)phenyl) acrylate]
EC50: 1 to 10 µM

COC(=O)/C=C/c1cccc(N(Cc2ccc(-c3ccc(S(C)(=O)=O)c(F)c3)cc2)C(=O)C2CCCCC2)c1 [75.7, (E)-Methyl 3-(3-(N-((3′-fluoro-4′-(methylsulfonyl)-[1,1′-biphenyl]-4-yl)methyl)cyclohexanecarboxamido)phenyl) acrylate]
EC50: > 10 µM

COC(=O)/C=C/c1cccc(N(Cc2ccc(-c3ccc(S(C)(=O)=O)cc3F)cc2)C(=O)C2CCCCC2)c1 [75.8, (E)-Methyl 3-(3-(N-((2′-fluoro-4′-(methylsulfonyl)-[1,1′-biphenyl]-4-yl)methyl)cyclohexanecarboxamido)phenyl) acrylate]
EC50: 1 to 10 µM

COC(=O)/C=C/c1cccc(N(Cc2ccc(-c3ccc4ncsc4c3)cc2)C(=O)C2CCCCC2)c1 [75.9, (E)-Methyl 3-(3-(N-(4-(benzo[d]thiazol-6-yl)benzyl)cyclohexanecarboxamido)phenyl) acrylate]
EC50: 1 to 10 µM

COC(=O)/C=C/c1cccc(N(Cc2ccc(-c3ccc(S(C)(=O)=O)c(Cl)c3)cc2)C(=O)C2CCCCC2)c1 [75.10, (E)-Methyl 3-(3-(N-((3′-chloro-4′-(methylsulfonyl)-[1,1′-biphenyl]-4-yl)methyl)cyclohexanecarboxamido)phenyl) acrylate]
EC50: > 10 µM

COC(=O)/C=C/c1cccc(N(Cc2ccc(-c3ccc4ocnc4c3)cc2)C(=O)C2CCCCC2)c1 [75.11, (E)-Methyl 3-(3-(N-(4-(benzo[d]oxazol-5-yl)benzyl)cyclohexanecarboxamido)phenyl) acrylate]
EC50: 1 to 10 µM

COC(=O)/C=C/c1cccc(N(Cc2ccc(-c3ccc4ncoc4c3)cc2)C(=O)C2CCCCC2)c1 [75.12, (E)-Methyl 3-(3-(N-(4-(benzo[d]oxazol-6-yl)benzyl)cyclohexanecarboxamido)phenyl) acrylate]
EC50: 1 to 10 µM

COC(=O)/C=C/c1cccc(N(Cc2ccc(-c3ccc4cnoc4c3)cc2)C(=O)C2CCCCC2)c1 [75.13, (E)-Methyl 3-(3-(N-(4-(benzo[d]isoxazol-6-yl)benzyl)cyclohexanecarboxamido)phenyl) acrylate]
EC50: > 10 µM

COC(=O)/C=C/c1cccc(N(Cc2ccc(-c3ccc4scnc4c3)cc2)C(=O)C2CCCCC2)c1 [75.14, (E)-Methyl 3-(3-(N-(4-(benzo[d]thiazol-5-yl)benzyl)cyclohexanecarboxamido)phenyl) acrylate]
EC50: ≤ 1 µM

COC(=O)/C=C/c1cccc(N(Cc2ccc(-c3ccc4oncc4c3)cc2)C(=O)C2CCCCC2)c1 [75.15, (E)-Methyl 3-(3-(N-(4-(benzo[d]isoxazol-5-yl)benzyl)cyclohexanecarboxamido)phenyl) acrylate]
EC50: > 10 µM

COC(=O)/C=C/c1cccc(N(Cc2ccc(-c3ccc4cnsc4c3)cc2)C(=O)C2CCCCC2)c1 [75.16, (E)-Methyl 3-(3-(N-(4-(benzo[d]isothiazol-6-yl)benzyl)cyclohexanecarboxamido)phenyl) acrylate]
EC50: 1 to 10 µM

COC(=O)/C=C/c1cccc(N(Cc2ccc(-c3ccc4sncc4c3)cc2)C(=O)C2CCCCC2)c1 [75.17, (E)-Methyl 3-(3-(N-(4-(benzo[d]isothiazol-5-yl)benzyl)cyclohexanecarboxamido)phenyl) acrylate]
EC50: 1 to 10 µM

COC(=O)/C=C/c1cccc(N(Cc2ccc(-c3ccc4c(c3)c(F)nn4C)cc2)C(=O)C2CCCCC2)c1 [75.18, (E)-Methyl 3-(3-(N-(4-(3-fluoro-1-methyl-1H-indazol-5-yl)benzyl)cyclohexanecarboxamido)phenyl) acrylate]
EC50: ≤ 1 µM

COC(=O)/C=C/c1cccc(N(Cc2ccc(-c3ccc4c(C)nsc4c3)cc2)C(=O)C2CCCCC2)c1 [75.19, (E)-Methyl 3-(3-(N-(4-(3-methylbenzo[d]isothiazol-6-yl)benzyl)cyclohexanecarboxamido)phenyl) acrylate]
EC50: ≤ 1 µM

CN(C)c1ccc(-c2ccc(CN(C(=O)C3CCCCC3)c3cccc(/C=C/C(=O)OC4CCCCC4)c3)cc2)cc1 [86.1, (E)-Cyclohexyl 3-(3-(N-((4′-(dimethylamino)-[1,1′-biphenyl]-4-yl)methyl)cyclohexanecarboxamido)phenyl) acrylate]
EC50: > 10 µM

CC(C)COC(=O)/C=C/c1cccc(N(Cc2ccc(-c3ccc(N(C)C)cc3)cc2)C(=O)C2CCCCC2)c1 [86.2, (E)-Isobutyl 3-(3-(N-((4′-(dimethylamino)-[1,1′-biphenyl]-4-yl)methyl)cyclohexanecarboxamido)phenyl) acrylate]
EC50: > 10 µM

COCCOC(=O)/C=C/c1cccc(N(Cc2ccc(-c3ccc(N(C)C)cc3)cc2)C(=O)C2CCCCC2)c1 [86.3, (E)-2-Methoxyethyl 3-(3-(N-((4′-(dimethylamino)-[1,1′-biphenyl]-4-yl)methyl)cyclohexanecarboxamido)phenyl) acrylate]
EC50: 1 to 10 µM

CN(C)CCOC(=O)/C=C/c1cccc(N(Cc2ccc(-c3ccc(N(C)C)cc3)cc2)C(=O)C2CCCCC2)c1 [86.4, (E)-2-(Dimethylamino)ethyl 3-(3-(N-((4′-(dimethylamino)-[1,1′-biphenyl]-4-yl)methyl)cyclohexanecarboxamido)phenyl) acrylate]
EC50: > 10 µM

CN(C)c1ccc(-c2ccc(CN(C(=O)C3CCCCC3)c3cccc(/C=C/C(=O)OCC4CCCO4)c3)cc2)cc1 (stereo not drawn) [86.5, (E)-(Tetrahydrofuran-2-yl) methyl 3-(3-(N-((4′-(dimethylamino)-[1,1′-biphenyl]-4-yl)methyl)cyclohexanecarboxamido)phenyl) acrylate]
EC50: > 10 µM

CN(C)c1ccc(-c2ccc(CN(C(=O)C3CCCCC3)c3cccc(/C=C/C(=O)OCC(F)(F)F)c3)cc2)cc1 [86.6, (E)-2,2,2-Trifluoroethyl 3-(3-(N-((4′-(dimethylamino)-[1,1′-biphenyl]-4-yl)methyl)cyclohexanecarboxamido)phenyl) acrylate]
EC50: 1 to 10 µM
